Columns and labels:
[1] = Particle size and polydispersity index of nanoparticle compositions (Zetasizer Nano ZS); format: physicochemical; details: for Size (nm): lipid:DSPC:cholesterol:PEG-DMG 50:10:38.5:1.5 mol %
Summary of the method: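 Values are size and PDI readings from a Zetasizer Nano ZS. Measurements are taken in 1×PBS; zeta potential, by contrast, uses 15 mM PBS.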

[2] = tested on: IL-6, IP-10; test: Cytokine induction in mice upon intravenous administration; format: in vivo; design: Cytokine induction IL-6 / Cytokine induction IP-10: unit not given here; details: 0.5 mpk, 6 hours; for Cytokine induction IL-6 / Cytokine induction IP-10: intravenous
Summary of the method: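 IL-6 and IP-10 concentrations determined 6 hours after a single intravenous 0.5 mpk dose of lipid nanoparticle formulation in mice, with MC3 and PBS as comparators.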

[3] = tested on: luciferase (Luc) mRNA; test: Luc expression in liver, lung, spleen and femur 6 hours after intravenous administration; format: in vivo; details: mice, 0.5 mpk; for Total Flux Femur / Total Flux Liver / Total Flux Lung / Total Flux Spleen: intravenous
Summary of the method: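 LNP-formulated mRNA given IV to mice (n=3) at 0.5 mpk; at 6 h, bioluminescence imaged ex vivo 15 min after IP D-luciferin (15 mg/mL, 200 μL), organs imaged within 25 min. Values are total flux by region of interest.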

[4] = lipid nanoparticle, ±SD within one assay run (Table 37)

SMILES	PDI ([1]; Table 1A)	Size (nm) ([1]; Table 1A)	Cytokine induction IL-6 [2]	Cytokine induction IP-10 [2]	Total Flux Femur [3]	Total Flux Liver [3]	Total Flux Lung [3]	Total Flux Spleen [3]	PDI (Polydispersity index) [1, 4]	PDI ([1]; lipid:DSPC:Chol:PEG-DMG (50:10:38.5:1.5), hEPO mRNA)	IL-6 induction ([2]; i.v., in words)	IP-10 induction ([2]; i.v., in words)	Flux in the liver ([3]; i.v., in words)	Size [1, 4] [nm]
CCCCCCCCCCCCCCN(CCO)CCCCCCCC(=O)OC(CCCCCCCC)CCCCCCCC [Compound 2, Heptadecan-9-yl 8-((2-hydroxyethyl)(tetradecyl)amino)octanoate]	0.14	83.9	70.95	468.86	3.86E+06	4.87E+09	2.52E+07	5.77E+07	–	–	–	–	–	–
CCCCCCCCC(CCCCCCCC)OC(=O)CCCCCCCN(CCO)CCCCCC [Compound 5, Heptadecan-9-yl 8-(hexyl(2-hydroxyethyl)amino)octanoate]	0.21	196.4	94.07	487.16	1.22E+06	5.84E+07	1.89E+06	1.55E+08	–	–	–	–	–	–
CCCCC/C=C\C/C=C\CCCCCCCCN(CCO)CCCCCCCC(=O)OC(CCCCCCCC)CCCCCCCC [Compound 6, Heptadecan-9-yl 8-((2-hydroxyethyl)((9Z,12Z)-octadeca-9,12-dien-1-yl)amino)octanoate]	0.066	73.1	136.18	316.01	2.15E+06	1.09E+09	4.30E+06	3.03E+07	0.07 ± 0.05	0.082	–	–	–	–
CCCCCCCCCOC(=O)CCCCCCCN(CCCCCCCC(=O)OC(CCCCCCCC)CCCCCCCC)C[C@H](C)O [Compound 12, Heptadecan-9-yl (S)-8-((2-hydroxypropyl)(8-(nonyloxy)-8-oxooctyl)amino)octanoate]	0.17	116.7	3.88	32.03	–	6.84E+08	7.45E+06	6.82E+07	–	–	lowest	lowest	–	–
CCCCCCCCC(CCCCCCCC)OC(=O)CCCCCCCN(CCO)CCCCCCCC(=O)OCC1CC1CCCCCC (stereo not drawn) [Compound 28, Heptadecan-9-yl 8-((8-((2-hexylcyclopropyl)methoxy)-8-oxooctyl)(2-hydroxyethyl)amino)octanoate]	0.20	99.4	17.47	283.13	–	1.22E+10	2.17E+08	1.80E+08	–	–	lowest	–	highest	–
CCCCCCCCC(CCCCCCCC)OC(=O)CCCCCCCN(CCO)CCCCCCCC(=O)OC(CCCCCCCC)CCCCCCCC [Compound 29, Di(heptadecan-9-yl) 8,8′-((2-hydroxyethyl)azanediyl)dioctanoate]	0.11	66.8	69.54	1362.81	9.56E+05	5.20E+08	9.83E+05	5.99E+06	0.11 ± 0.03	–	–	–	–	66.8 ± 1.1
CCCCC/C=C\C/C=C\CCCCCCCCN(CCO)CCCCCCCC(=O)OCCCCCCCCC [Compound 136, Nonyl 8-((2-hydroxyethyl)((9Z,12Z)-octadeca-9,12-dien-1-yl)amino)octanoate]	0.5	140.4	28.69	887.91	6.60E+05	1.34E+08	8.91E+05	2.77E+07	0.11 ± 0.05	–	–	–	–	–

Reference: patent publication US12263248B2, “Compounds and compositions for intracellular delivery of therapeutic agents” (ModernaTX, Inc., priority 2018, dated 2025)
